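Briefly, cells in 96-well plates were exposed to five compound concentrations for 48 h, and endpoints were estimated by linear interpolation. GI50 is the concentration that inhibits growth by half.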 Calls of active or inactive are those of the source. No stated cut-off is given here; in the data, active = GI50 up to about 1.1 µM and inactive = higher.
How the values were obtained:
Assay in all cases: growth of human tumour cells (NCI), 48 h
ACHN = system: ACHN
CCRF-CEM = system: CCRF-CEM
HCC 2998 = system: HCC 2998
IGROV-1 = system: IGROV-1
K562 = system: K562
LOX IMVI = system: LOX IMVI
NCI-H522 = system: NCI-H522
OVCAR-3 = system: OVCAR-3
SF-268 = system: SF-268
SF-295 = system: SF-295
SR = system: SR
SW-620 = system: SW-620
TK-10 = system: TK-10
UACC-62 = system: UACC-62
UO-31 = system: UO-31
SK-MEL-2 = system: SK-MEL-2

Measured: GI50

Nc1nc(-c2ccccc2)cc(-c2ccccc2O)n1
inactive: ACHN 27.2 µM | CCRF-CEM 34 µM | HCC 2998 40.7 µM | IGROV-1 49.4 µM | K562 39.1 µM | LOX IMVI 31.8 µM | NCI-H522 22.9 µM | OVCAR-3 33.5 µM | SF-268 24 µM | SF-295 71.6 µM | SR 30.3 µM | SW-620 41.1 µM | TK-10 46.7 µM | UACC-62 59.2 µM | UO-31 8.15 µM

CCc1ccccc1NC(=O)/C(=N/O)C(C)=O
inactive: ACHN > 100 µM | CCRF-CEM > 100 µM | HCC 2998 > 100 µM | IGROV-1 > 100 µM | K562 > 100 µM | LOX IMVI > 100 µM | NCI-H522 > 100 µM | OVCAR-3 > 100 µM | SF-268 > 100 µM | SF-295 > 100 µM | SK-MEL-2 > 100 µM | SW-620 > 100 µM | TK-10 > 100 µM | UACC-62 > 100 µM | UO-31 > 100 µM

CC1CCCP(=O)(c2ccccc2)CCC1 (configuration not stated)
inactive: ACHN > 100 µM | CCRF-CEM > 100 µM | HCC 2998 > 100 µM | IGROV-1 > 100 µM | K562 > 100 µM | LOX IMVI > 100 µM | OVCAR-3 > 100 µM | SF-268 > 100 µM | SF-295 > 100 µM | SK-MEL-2 > 100 µM | SW-620 > 100 µM | TK-10 > 100 µM | UACC-62 > 100 µM | UO-31 > 100 µM

O=C(Cc1nc2ccccc2s1)C(=O)Nc1cccc(Cl)c1
inactive: ACHN > 100 µM | CCRF-CEM > 100 µM | HCC 2998 > 100 µM | IGROV-1 > 100 µM | K562 > 100 µM | LOX IMVI > 100 µM | NCI-H522 > 100 µM | OVCAR-3 > 100 µM | SF-268 > 100 µM | SF-295 > 100 µM | SK-MEL-2 > 100 µM | SW-620 > 100 µM | TK-10 > 100 µM | UACC-62 > 100 µM | UO-31 > 100 µM

COc1cc(CCCC(O)COc2cccc3c2C2(O)CCCCCC32)cc(OC)c1 (configuration not stated)
inactive: ACHN 15.7 µM | CCRF-CEM 25.8 µM | HCC 2998 4.97 µM | IGROV-1 15.2 µM | K562 11.6 µM | NCI-H522 24.9 µM | SF-268 17.9 µM | SF-295 16.5 µM | SK-MEL-2 20.7 µM | SW-620 17.2 µM | TK-10 14.1 µM | UACC-62 16.4 µM | UO-31 15.4 µM

COc1cccc(NC(=O)CC(=O)N2NC(C)C(/N=N/c3cccc(C(=O)O)c3)C2=O)c1 (configuration not stated)
inactive: ACHN > 100 µM | CCRF-CEM > 100 µM | HCC 2998 > 100 µM | IGROV-1 > 100 µM | K562 > 100 µM | LOX IMVI > 100 µM | NCI-H522 > 100 µM | OVCAR-3 > 100 µM | SF-268 > 100 µM | SF-295 > 100 µM | SK-MEL-2 > 100 µM | SR > 100 µM | SW-620 > 100 µM | TK-10 > 100 µM | UACC-62 > 100 µM | UO-31 > 100 µM

Cc1nc2sccn2c1C(=O)NC(=O)Nc1ccc(Cl)cc1
inactive: ACHN > 100 µM | CCRF-CEM > 100 µM | HCC 2998 > 100 µM | IGROV-1 > 100 µM | K562 > 100 µM | LOX IMVI > 100 µM | NCI-H522 57 µM | OVCAR-3 60.3 µM | SF-268 39.6 µM | SF-295 70.8 µM | SK-MEL-2 > 100 µM | SW-620 > 100 µM | TK-10 30.9 µM | UACC-62 > 100 µM | UO-31 59.2 µM

CC(=O)OCC1OC(OC2C(COC(C)=O)OC(Sc3ccccc3C)C(OC(C)=O)C2OC(C)=O)C(OC(C)=O)C(OC(C)=O)C1OC(C)=O (configuration not stated)
inactive: ACHN > 100 µM | HCC 2998 > 100 µM | IGROV-1 > 100 µM | K562 > 100 µM | NCI-H522 > 100 µM | SF-268 > 100 µM | SF-295 > 100 µM | SK-MEL-2 > 100 µM | SR > 100 µM | SW-620 > 100 µM | TK-10 > 100 µM | UACC-62 > 100 µM | UO-31 > 100 µM

N=C(c1ccccc1)N(c1ccccc1)c1ccccc1
inactive: HCC 2998 > 100 µM | LOX IMVI 18.2 µM | NCI-H522 73.3 µM | SF-268 48.6 µM | SF-295 > 100 µM | SK-MEL-2 > 100 µM | SR 30.7 µM | SW-620 > 100 µM | TK-10 > 100 µM | UO-31 68.5 µM

CCOC(=O)/C(C(C)=O)=C1/N[C@H](C(=O)OCC)CS1
inactive: ACHN > 100 µM | CCRF-CEM > 100 µM | HCC 2998 > 100 µM | IGROV-1 > 100 µM | K562 > 100 µM | LOX IMVI > 100 µM | NCI-H522 > 100 µM | OVCAR-3 > 100 µM | SF-268 > 100 µM | SF-295 > 100 µM | SK-MEL-2 > 100 µM | SR > 100 µM | SW-620 > 100 µM | UACC-62 > 100 µM | UO-31 > 100 µM

CC(=O)O[C@@]1(C)[C@@H](C)C(=O)O[C@@H]2CCN3CC=C(COC(=O)[C@]1(C)O)[C@H]23
inactive: ACHN > 100 µM | CCRF-CEM > 100 µM | HCC 2998 > 100 µM | IGROV-1 > 100 µM | K562 > 100 µM | NCI-H522 > 100 µM | OVCAR-3 > 100 µM | SF-268 > 100 µM | SF-295 > 10 µM | SK-MEL-2 > 100 µM | SR > 100 µM | SW-620 > 100 µM | TK-10 > 100 µM | UACC-62 > 100 µM | UO-31 > 100 µM

O=CC1=CCCC2(C1)OCCO2
inactive: CCRF-CEM > 100 µM | HCC 2998 > 100 µM | IGROV-1 > 100 µM | K562 > 100 µM | LOX IMVI > 100 µM | NCI-H522 > 100 µM | OVCAR-3 > 100 µM | SF-268 > 100 µM | SF-295 > 100 µM | SK-MEL-2 > 100 µM | SW-620 > 100 µM | TK-10 > 100 µM | UACC-62 > 100 µM | UO-31 > 100 µM

CC1(C)N=C(c2ccccn2)C(c2ccccn2)=NC1(C)C
inactive: ACHN > 100 µM | CCRF-CEM > 100 µM | HCC 2998 > 100 µM | IGROV-1 > 100 µM | K562 > 100 µM | LOX IMVI > 100 µM | OVCAR-3 > 100 µM | SF-268 > 100 µM | SF-295 > 100 µM | SK-MEL-2 > 100 µM | SR > 100 µM | SW-620 > 100 µM | UACC-62 > 100 µM | UO-31 > 100 µM

N#CC(C(=O)/C(=N/NC(=O)c1ccccc1O)C(C#N)c1ccc(Br)cc1)c1ccc(Br)cc1 (configuration not stated)
inactive: ACHN 13.7 µM | CCRF-CEM 2.23 µM | HCC 2998 12.1 µM | IGROV-1 15.7 µM | K562 5.74 µM | LOX IMVI 7.82 µM | NCI-H522 11.4 µM | OVCAR-3 13.5 µM | SF-268 > 10 µM | SF-295 14.5 µM | SK-MEL-2 12.2 µM | SW-620 4.02 µM | TK-10 24.4 µM | UACC-62 6.71 µM | UO-31 13.3 µM

Cc1cccc(-c2nnc3s/c(=C\c4ccc5c(c4)OCO5)c(=O)n23)c1
inactive: ACHN > 100 µM | CCRF-CEM > 100 µM | HCC 2998 > 100 µM | IGROV-1 > 100 µM | K562 > 100 µM | LOX IMVI > 100 µM | NCI-H522 > 100 µM | OVCAR-3 > 100 µM | SF-268 > 100 µM | SF-295 > 100 µM | SK-MEL-2 > 100 µM | SW-620 > 100 µM | TK-10 > 100 µM | UACC-62 > 100 µM | UO-31 > 100 µM

COc1ccccc1NC(=O)CC(=O)N1N=C(c2ccccc2)C(/N=N/c2ccc(Cl)cc2)C1=O (configuration not stated)
inactive: ACHN 19.2 µM | HCC 2998 45.6 µM | IGROV-1 29.9 µM | K562 29 µM | LOX IMVI 22.9 µM | NCI-H522 32.1 µM | OVCAR-3 28.4 µM | SF-268 50.2 µM | SF-295 30.5 µM | SK-MEL-2 69.7 µM | SR 55.1 µM | SW-620 45.6 µM | TK-10 27.7 µM | UACC-62 25.7 µM | UO-31 18.2 µM

CN1C(=O)C(C)(C)C2(SC(C)(C)C2(C)C)N(C)C1=S (configuration not stated)
inactive: ACHN > 100 µM | CCRF-CEM > 100 µM | HCC 2998 > 100 µM | IGROV-1 > 100 µM | K562 53.8 µM | NCI-H522 86.7 µM | OVCAR-3 > 100 µM | SF-268 > 100 µM | SF-295 > 100 µM | SK-MEL-2 > 100 µM | SR 55.3 µM | SW-620 > 100 µM | UACC-62 2.12 µM | UO-31 > 100 µM

[N-]=[N+]=C1C(=O)C2CC3CC1CC2C3 (configuration not stated)
inactive: ACHN > 100 µM | CCRF-CEM > 100 µM | HCC 2998 > 100 µM | IGROV-1 > 100 µM | K562 > 100 µM | LOX IMVI > 100 µM | NCI-H522 > 100 µM | OVCAR-3 > 100 µM | SF-268 > 100 µM | SF-295 > 100 µM | SK-MEL-2 > 100 µM | SR > 100 µM | SW-620 81.1 µM | TK-10 > 100 µM | UACC-62 > 100 µM | UO-31 > 100 µM

COc1ccc(/C=C(/C(=O)O)c2cc(OC)c(OC)c(OC)c2)cc1
inactive: ACHN > 100 µM | CCRF-CEM 43.1 µM | HCC 2998 > 100 µM | IGROV-1 > 100 µM | K562 38.5 µM | NCI-H522 16.8 µM | OVCAR-3 23.7 µM | SF-268 70.1 µM | SK-MEL-2 47.5 µM | SR 43.3 µM | SW-620 61 µM | UACC-62 43.6 µM | UO-31 39.5 µM

— ChEMBL document CHEMBL1201862, “PubChem BioAssay data set” (2004)
